This passage reports IC50 results from ChEMBL document CHEMBL1144900, “Synthesis and SAR of thrombin inhibitors incorporating a novel 4-amino-morpholinone sscaffold: analysis of X-ray crystal structure of enzyme inhibitor complex” (J Med Chem, 2003).

Some results are limits rather than exact numbers.

One may read the IC50 as the concentration that gives 50% inhibition.

The target in the experiment is Prothrombin (Homo sapiens, UniProt P00734). Put plainly: Inhibitory activity against human thrombin.
`N=C(N)c1ccc(CNC(=O)C[C@H]2OCCN(NS(=O)(=O)Cc3ccccc3)C2=O)cc1` displayed an IC50 of 36.8 µM.

Take `Cc1cc(S(=O)(=O)NN2CCOC(CC(=O)NCc3ccc(C(=N)N)cc3)C2=O)c(C)cc1Cl` (stereo not given): 0.164 µM corresponded to half-maximal inhibition (IC50).

Take `N=C(N)c1ccc(CNC(=O)C[C@H]2OCCN(NC(=O)c3ccccc3)C2=O)cc1`: 106 µM corresponded to half-maximal inhibition (IC50).

`N=C(N)c1ccc(CNC(=O)C[C@H]2OCCN(NCC(=O)c3ccccc3)C2=O)cc1` had an IC50 above 133 µM.

As to `N=C(N)c1ccc(CNC(=O)C[C@@H]2OCCN(NS(=O)(=O)Cc3ccccc3)C2=O)cc1`, the IC50 stood at 9.15 µM.

Regarding `COc1ccc(OC)c(S(=O)(=O)NN2CCOC(CC(=O)NCc3ccc(C(=N)N)cc3)C2=O)c1` (stereo not given), half-maximal inhibition (IC50) was put at 0.13 µM.

`N=C(N)c1ccc(CNC(=O)CC2OCCN(Nc3cccc(N)c3)C2=O)cc1` (stereo not given) registered an IC50 above 32 µM.

For the compound `Cc1ccc(CCNN2CCOC(CC(=O)NCc3ccc(C(=N)N)cc3)C2=O)cc1` (stereo not given), 0.961 µM corresponded to half-maximal inhibition (IC50).

In turn, `N=C(N)c1ccc(CNC(=O)C[C@H]2OCCN(NC(=O)c3ccc(N)cc3)C2=O)cc1` returned an IC50 of 150 µM.

Regarding `N=C(N)c1ccc(CNC(=O)CC2OCCN(N(Cc3ccccc3)Cc3ccccc3)C2=O)cc1` (stereo not given), half-maximal inhibition (IC50) was put at 19.8 µM.

`N=C(N)c1ccc(CNC(=O)C[C@@H]2OCCN(NCCc3ccccc3)C2=O)cc1` registered an IC50 of 1.79 µM.

Take `N=C(N)c1ccc(CNC(=O)CC2OCCN(Nc3ccc(-c4ccccc4)cc3)C2=O)cc1` (stereo not given): the half-maximal inhibitory concentration (IC50) turned out to be 4.88 µM.

Turning to `N=C(N)c1ccc(CNC(=O)C[C@H]2OCCN(NCc3ccccc3)C2=O)cc1`, the half-maximal inhibitory concentration (IC50) was 13.6 µM.

Compound `CC(C)OC(=O)NN1CCO[C@H](CC(=O)NCc2ccc(C(=N)N)cc2)C1=O` came in with an IC50 of 80.6 µM.

`N=C(N)c1ccc(CNC(=O)CC2OCCN(Nc3ccccc3)C2=O)cc1` (stereo not given) came in with an IC50 of 34.4 µM.

In the case of `N=C(N)c1ccc(CNC(=O)CC2OCCN(NS(=O)(=O)c3ccc(F)cc3F)C2=O)cc1` (stereo not given), 8.14 µM corresponded to half-maximal inhibition (IC50).

As to `N=C(N)c1ccc(CNC(=O)C[C@H]2OCCN(NCCCc3ccccc3)C2=O)cc1`, the 50% inhibitory concentration (IC50) stood at 45.4 µM.

For `Cc1ccc(C)c(S(=O)(=O)NN2CCOC(CC(=O)NCc3ccc(C(=N)N)cc3)C2=O)c1` (stereo not given), the midpoint of inhibition, the IC50, lay at 0.247 µM.

`N=C(N)c1ccc(CNC(=O)C[C@H]2OCCN(N(CCCc3ccccc3)CCCc3ccccc3)C2=O)cc1` registered an IC50 of 36.2 µM.

`N=C(N)c1ccc(CNC(=O)CC2OCCN(NS(=O)(=O)c3ccc4c(c3)CCO4)C2=O)cc1` (stereo not given) returned an IC50 of 0.486 µM.

Compound `N=C(N)c1ccc(CNC(=O)C[C@H]2OCCN(NS(=O)(=O)c3ccccc3)C2=O)cc1` displayed an IC50 of 37.7 µM.

Compound `N=C(N)c1ccc(CNC(=O)C[C@@H]2OCCN(NCc3ccccc3)C2=O)cc1` displayed a concentration for half-maximal inhibition (IC50) of 10.6 µM.

`N=C(N)c1ccc(CNC(=O)C[C@@H]2OCCN(NCCCc3ccccc3)C2=O)cc1`: the concentration for half-maximal inhibition (IC50) is 4.74 µM.

`CC(C)(C)OC(=O)NN1CCO[C@H](CC(=O)NCc2ccc(C(=N)N)cc2)C1=O`: half-maximal inhibition (IC50) was put at 54.7 µM.

`N=C(N)c1ccc(CNC(=O)C[C@H]2OCCN(NCCc3ccccc3)C2=O)cc1` displayed a half-maximal inhibitory concentration (IC50) of 35.6 µM.
